Results: US8816052B2, “Mutant apoprotein of photoprotein with low calcium sensitivity” (JNC Corporation, priority 2011, dated 2014)

T1: Native Aequorin (Aequorea victoria, UniProt P02592)
T1 construct: His tag (from the vector name piP-His-HE); made in house
T1 sequence (P02592 9-196 limits assumed): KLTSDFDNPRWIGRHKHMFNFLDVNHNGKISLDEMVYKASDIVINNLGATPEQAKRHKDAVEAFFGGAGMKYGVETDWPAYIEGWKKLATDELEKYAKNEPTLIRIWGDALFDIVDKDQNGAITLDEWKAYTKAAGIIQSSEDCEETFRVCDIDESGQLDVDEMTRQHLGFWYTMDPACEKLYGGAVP


How the values were obtained:
Type in all cases: biochemical
Mutant Aequorin AM20 = target: T2, Mutant Aequorin AM20 (Aequorea victoria, UniProt P02592, H34Q/K37A/N33D/S39T/V32K); settings: for Half Decay Time / Luminescence Intensity for 60 Secs / Relative Luminescence Intensity: Mutant Aequorin AM20; for Luminescence Intensity for 60 Secs / Relative Luminescence Intensity: CTZ = 100; for Relative Luminescence Intensity: 50 mM calcium solution; for half decay time of the luminescence of the semi-synthetic aequorin: analogue as light-emitting substrate, statement in words
T2 construct: OmpA secretory signal peptide (N); histidine tag (N); made in house; host or cells: Escherichia coli strain WA802
T2 sequence (P02592 9-196 V32K/N33D/H34Q/K37A/S39T): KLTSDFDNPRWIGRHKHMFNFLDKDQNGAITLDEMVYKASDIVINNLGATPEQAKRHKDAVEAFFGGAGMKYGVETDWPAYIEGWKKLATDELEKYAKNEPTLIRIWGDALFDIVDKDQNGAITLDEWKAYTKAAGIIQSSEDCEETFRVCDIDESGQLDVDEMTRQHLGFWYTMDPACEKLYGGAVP
Method: (§1) AM20 was prepared to examine the properties. Specifically, 1 ml of 30 mM Tris-HCl (pH 7.6) containing 10 mM EDTA was mixed with 2-mercaptoethanol (1 μl) and a solution of the coelenterazine analogue (1 μg/μl) dissolved in ethanol. Then, 10 μl of the purified apoaequorin or recombinant mutant apoaequorin AM20 was added to the mixture, which was allowed to stand on ice (4° C.) for 5 hours to perform the regeneration reaction. […] The half decay time was determined from the luminescence patterns.

Native Aequorin = target: T1, Native Aequorin; test: Substrate specificity: semi-synthetic aequorin from coelenterazine analogue and purified apoaequorin; settings: for Luminescence Intensity for 60 Secs: CTZ = 100; for Relative Luminescence Intensity: CTZ = 100, 50 mM calcium solution
Method: as §1

[1] = Luminescence activity and half decay time of mutant aequorins regenerated from E. coli extracts; settings: E. coli JM83 extract regenerated with coelenterazine, final calcium 25 mM
Method: To express in Escherichia coli the mutant apoaequorin expression vector having the replaced other EF hand loop sequence which was constructed in (2) above, the mutant apoaequorin expression vector was transfected to Escherichia coli JM83 in a conventional manner. The transformants obtained were inoculated into 10 ml of LB liquid medium (10 g of bacto-tryptone, 5 g of yeast extract and 5 g of sodium chloride, per liter of water, pH 7.2) containing ampicillin (50 μg/ml) and cultured at 37° C. for 18 hours. […] Subsequently, 2-mercaptoethanol (1 μl) (manufactured by Wako Pure Chemical Industry) and a solution of substrate coelenterazine in ethanol (1 μg/μl) (JNC Corporation, hereinafter the same) were mixed with the recombinant mutant apoaequorin extract. The mixture was allowed to stand on ice (4° C.) for 18 hours thereby to regenerate into the mutant aequorin. […] The final calcium level in the reaction solution was 25 mM. The luminescence activity was expressed by relative activity (%) to the maximum intensity (Imax).

| Molecule | Half Decay Time (Mutant Aequorin AM20) | Luminescence Intensity for 60 Secs (Mutant Aequorin AM20) | Relative Luminescence Intensity (Mutant Aequorin AM20) | Half Decay Time (Native Aequorin) | Luminescence Intensity for 60 Secs (Native Aequorin) | Relative Luminescence Intensity (Native Aequorin) | half decay time of the luminescence of the semi-synthetic aequorin (Mutant Aequorin AM20) | Relative Luminescence Activity ([1]; 50 mM calcium solution added, measured 30 seconds, relative to maximum intensity (Imax)) | Half Decay Time ([1]; time until luminescence reaches half of maximum intensity) |
| --- | --- | --- | --- | --- | --- | --- | --- | --- | --- |
| O=c1c(Cc2cccc(O)c2)nc2c(Cc3ccccc3)[nH]c(-c3ccc(O)cc3)cn1-2 [3iso-CTZ, 3iso-coelenterazine] | 0.66 s | 9.2% | 224% | 0.24 s | 13.4% | 51.6% | – | – | – |
| Cc1cccc(Cc2nc3c(Cc4ccccc4)[nH]c(-c4ccc(O)cc4)cn-3c2=O)c1 [3me-CTZ, 3me-coelenterazine] | 3.69 s | 35.5% | 125% | 0.51 s | 21.2% | 35.0% | – | – | – |
| COc1cccc(Cc2nc3c(Cc4ccccc4)[nH]c(-c4ccc(O)cc4)cn-3c2=O)c1 [3meo-CTZ, 3meo-coelenterazine] | 1.43 s | 25.0% | 266% | 0.52 s | 35.6% | 64.9% | – | – | – |
| Oc1ccc(Cc2nc3c(Cc4ccccc4)nc(-c4ccc(O)cc4)cn3c2O)cc1 [CTZ, coelenterazine] | 14.12 s | 100% | 100% | 0.81 s | 100% | 100% | – | – | – |
| O=c1c(Cc2ccc(C(F)(F)F)cc2)nc2c(Cc3ccccc3)[nH]c(-c3ccc(O)cc3)cn1-2 [cf3-CTZ, cf3-coelenterazine] | >60 s | 18.6% | 7.5% | 5.95 s | 48.6% | 6.3% | extremely prolonged | – | – |
| Oc1ccc(-c2cn3c(O)c(Cc4ccccc4)nc3c(Cc3ccccc3)n2)cc1 [h-CTZ, h-coelenterazine] | 2.98 s | 45.4% | 220% | 0.69 s | 70.1% | 87.9% | – | – | – |
| O=c1c(Cc2ccccc2)nc2c(CC3CCCC3)[nH]c(-c3ccc(O)cc3)cn1-2 [hcp-CTZ, hcp-coelenterazine] | 0.61 s | 7.6% | 187% | 0.51 s | 14.3% | 20.5% | – | – | – |
| Cc1ccc(Cc2nc3c(Cc4ccccc4)[nH]c(-c4ccc(O)cc4)cn-3c2=O)cc1 [me-CTZ, me-coelenterazine] | >60 s | 15.4% | 6.8% | 5.00 s | 45.0% | 5.8% | extremely prolonged | – | – |
| COc1ccc(Cc2nc3c(Cc4ccccc4)[nH]c(-c4ccc(O)cc4)cn-3c2=O)cc1 [meo-CTZ, meo-coelenterazine] | 18.35 s | 35.6% | 26.6% | 1.63 s | 60.1% | 22.3% | extremely prolonged | – | – |
| Bis-coelenterazine [Bis-CTZ] | – | 0.0% | 0.0% | – | 0.0% | 0.0% | – | – | – |
| ameh-coelenterazine [αmeh-CTZ] | 0.61 s | 0.9% | 19.4% | 0.35 s | 0.9% | 2.2% | – | – | – |
| et-coelenterazine [et-CTZ] | 1.94 s | 33.6% | 56.7% | 1.21 s | 44.1% | 27.3% | – | – | – |
| i-coelenterazine [i-CTZ] | >60 s | 9.8% | 3.6% | 11.42 s | 65.3% | 5.0% | extremely prolonged | – | – |
| n-coelenterazine [n-CTZ] | 44.04 s | 1.9% | 1.0% | 4.71 s | 24.0% | 3.6% | extremely prolonged | – | – |
| pAM2 + X: aequorin expressed with vector pAM2+X; EF hand loop [I] DVNHNGKISLDE (SEQ ID NO: 13); native aequorin reference (protein) MTMITPSCKLTSDFDNPRWIGRHKHMFNFLDVNHNGKISLDEMVYKASDIVINNLGATPEQAKRHKDAVEAFFGGAGMKYGVETDWPAYIEGWKKLATDELEKYAKNEPTLIRIWGDALFDIVDKDQNGAITLDEWKAYTKAAGIIQSSEDCEETFRVCDIDESGQLDVDEMTRQHLGFWYTMDPACEKLYGGAVP | – | – | – | – | – | – | – | 100.0% | 1.3 s |
